Patent publication US20260297080A1, “BICYCLIC COMPOUNDS AS CDK INHIBITORS” (BeOne Medicines I GmbH, priority 2022, published 2026)

What was measured:
[1] = biological target: CDK1/Cyclin B1 (Homo sapiens, UniProt P06493); test: CDK1/Cyclin B1 Biochemical Assay (TR-FRET), 0.015 mM ATP; details: 0.15 μM Rb (Ser780)-biotin substrate, pH7.0, 60 min preincubation, 120 min reaction, room temperature
In short: (§1)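 Enzyme + cpd (0–10 μM), 60 min RT; add ATP + 0.15 μM Rb(Ser780)-biotin, 120 min RT; 50 mM HEPES pH 7.0, 50 mM MgCl2, 1 mM DTT, 0.1 mM orthovanadate. Stop/detect with Eu anti-pRb + SA-XL665, 60 min; ratio 665/620 nm; IC50 by 4PL fit.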

[2] = biological target: CDK2/Cyclin E1 (Homo sapiens, UniProt P24941); test: CDK2/Cyclin E1 Biochemical Assay (TR-FRET), 0.060 mM ATP; details: 0.15 μM Rb (Ser780)-biotin substrate, pH7.0, 60 min preincubation, 120 min reaction, room temperature
In short: as §1

Sequence of CDK1/Cyclin B1 (P06493 whole entry): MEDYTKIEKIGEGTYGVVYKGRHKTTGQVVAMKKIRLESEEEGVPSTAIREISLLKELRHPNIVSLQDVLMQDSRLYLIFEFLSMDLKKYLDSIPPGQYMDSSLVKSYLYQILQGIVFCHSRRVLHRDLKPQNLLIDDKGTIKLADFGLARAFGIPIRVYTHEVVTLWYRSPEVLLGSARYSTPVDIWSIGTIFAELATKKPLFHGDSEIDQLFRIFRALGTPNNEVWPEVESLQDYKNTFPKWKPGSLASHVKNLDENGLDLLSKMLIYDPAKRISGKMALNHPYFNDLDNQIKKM
Sequence of CDK1/Cyclin B1 (P14635 whole entry partner): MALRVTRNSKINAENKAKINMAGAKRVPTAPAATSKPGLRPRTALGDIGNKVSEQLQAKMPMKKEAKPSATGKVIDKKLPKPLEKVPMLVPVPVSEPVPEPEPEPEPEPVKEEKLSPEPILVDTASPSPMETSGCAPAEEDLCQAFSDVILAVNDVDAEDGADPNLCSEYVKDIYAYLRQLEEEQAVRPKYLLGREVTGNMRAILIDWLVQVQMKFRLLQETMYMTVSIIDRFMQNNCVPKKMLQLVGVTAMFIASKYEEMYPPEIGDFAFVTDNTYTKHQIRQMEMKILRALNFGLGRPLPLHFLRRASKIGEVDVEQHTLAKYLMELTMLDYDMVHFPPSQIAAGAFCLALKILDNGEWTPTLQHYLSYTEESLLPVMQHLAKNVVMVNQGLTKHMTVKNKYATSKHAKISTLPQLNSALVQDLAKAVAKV

Row | Compound | IC50 [1] [µM] | IC50 [2] [µM]
1 | CC(C)NC(=O)O[C@H]1CC[C@@H](c2cc(Nc3ccc4c(c3)C(C)NS4(=O)=O)n[nH]2)C1 (single isomer, unassigned) [Example 321a, cis-3-(3-((3-methyl-1,1-dioxido-2,3-dihydrobenzo[d]isothiazol-5-yl)amino)-1H-pyrazol-5-yl)cyclopentyl isopropylcarbamate] | 0.095 | 0.0029
2 | CC(C)NC(=O)O[C@H]1CC[C@@H](c2cc(Nc3ccc4c(c3F)CN(C[C@H](N)C(C)(C)C)S4(=O)=O)n[nH]2)C1 (relative stereo) [Example 99, cis-3-(3-((2-((R)-2-amino-3,3-dimethylbutyl)-4-fluoro-1,1-dioxido-2,3-dihydrobenzo[d]isothiazol-5-yl)amino)-1H-pyrazol-5-yl)cyclopentyl isopropylcarbamate] | 0.529 | 0.012
3 | C[C@H]1[C@H](O)CN1C(=O)O[C@H]1CC[C@@H](c2cc(Nc3ccc4c(c3)CS(=O)(=O)N4C)n[nH]2)C1 (relative stereo) [Example 354, cis-3-(3-((1-methyl-2,2-dioxido-1,3-dihydrobenzo[c]isothiazol-5-yl)amino)-1H-pyrazol-5-yl)cyclopentyl(2S,3R)-3-hydroxy-2-methylazetidine-1-carboxylate] | 0.085 | 0.011
4 | CC(C)NC(=O)O[C@H]1CC[C@@H](c2cc(Nc3ccc4c(c3F)CN(C3CC3)S4(=O)=O)n[nH]2)C1 (single isomer, unassigned) [Example 116a, cis-3-(3-((2-cyclopropyl-4-fluoro-1,1-dioxido-2,3-dihydrobenzo[d]isothiazol-5-yl)amino)-1H-pyrazol-5-yl)cyclopentyl isopropylcarbamate] | 0.518 | 0.0054
5 | CCCNC(=O)O[C@H]1CC[C@@H](c2cc(Nc3ccc4c(c3F)CN(CCO)S4(=O)=O)n[nH]2)C1 (relative stereo) [Example 126, cis-3-(3-((4-fluoro-2-(2-hydroxyethyl)-1,1-dioxido-2,3-dihydrobenzo[d]isothiazol-5-yl)amino)-1H-pyrazol-5-yl)cyclopentyl propylcarbamate] | 0.261 | 0.0083
6 | O=C(NC12CC(C1)C2)O[C@H]1CC[C@@H](c2cc(Nc3ccc4c(c3F)CNS4(=O)=O)n[nH]2)C1 (relative stereo) [Example 150, cis-3-(3-((4-fluoro-1,1-dioxido-2,3-dihydrobenzo[d]isothiazol-5-yl)amino)-1H-pyrazol-5-yl)cyclopentyl bicyclo[1.1.1]pentan-1-ylcarbamate] | 0.024 | 0.0003
7 | CC[C@H](C)NC(=O)O[C@H]1CC[C@@H](c2cc(Nc3ccc4c(c3F)CS(=O)(=O)N4C)n[nH]2)C1 (relative stereo) [Example 258, cis-3-(3-((4-fluoro-1-methyl-2,2-dioxido-1,3-dihydrobenzo[c]isothiazol-5-yl)amino)-1H-pyrazol-5-yl)cyclopentyl((S)-sec-butyl)carbamate] | 0.037 | 0.0015
8 | CC(C)NC(=O)O[C@H]1CC[C@@H](c2cc(Nc3cc4c(cc3F)S(=O)(=O)N(C(C)C)C4)n[nH]2)C1 (relative stereo) [Example 49, cis-3-(3-((6-fluoro-2-isopropyl-1,1-dioxido-2,3-dihydrobenzo[d]isothiazol-5-yl)amino)-1H-pyrazol-5-yl)cyclopentyl isopropylcarbamate] | > 10 | 0.758
9 | CC(C)NC(=O)O[C@H]1CC[C@@H](c2cc(Nc3ccc4c(c3F)CN(C3CCC3O)S4(=O)=O)n[nH]2)C1 (single isomer, unassigned) [Example 102, cis-3-(3-((4-fluoro-2-(2-hydroxycyclobutyl)-1,1-dioxido-2,3-dihydrobenzo[d]isothiazol-5-yl)amino)-1H-pyrazol-5-yl)cyclopentyl isopropylcarbamate] | 0.406 | 0.0051
